# Measured values from patent publication US20220193072A1, “METHODS OF TREATING BREAST CANCER WITH TETRAHYDRONAPHTHALENE DERIVATIVES AS ESTROGEN RECEPTOR DEGRADER” (Arvinas Operations, Inc., priority 2020, published 2022).
# Changes are numbered by the printed parent chain. Read-outs that look alike come from different tables or passages of the source.
# Key:
# [1] = system: MCF7 xenograft; assay: MCF7 orthotopic xenograft, combination with CDK4/6 inhibitor; type: in vivo, NOD/SCID mice
# [2] = molecular target: T1, ERα (Homo sapiens, UniProt P03372); assay: In vivo ERα degradation in MCF7 xenograft tumors (immunoblot); design: species or system NOD/SCID mice; details: MCF7/estradiol model, fulvestrant 200 mg/kg
# T1 construct: robustly degrades ER in ER-positive breast cancer cell lines; endogenous in cells; host or cells: MCF7, T47D (cell culture); MCF7 and tamoxifen-resistant MCF7 xenograft tumours in mice
# T1 sequence (P03372 1-595): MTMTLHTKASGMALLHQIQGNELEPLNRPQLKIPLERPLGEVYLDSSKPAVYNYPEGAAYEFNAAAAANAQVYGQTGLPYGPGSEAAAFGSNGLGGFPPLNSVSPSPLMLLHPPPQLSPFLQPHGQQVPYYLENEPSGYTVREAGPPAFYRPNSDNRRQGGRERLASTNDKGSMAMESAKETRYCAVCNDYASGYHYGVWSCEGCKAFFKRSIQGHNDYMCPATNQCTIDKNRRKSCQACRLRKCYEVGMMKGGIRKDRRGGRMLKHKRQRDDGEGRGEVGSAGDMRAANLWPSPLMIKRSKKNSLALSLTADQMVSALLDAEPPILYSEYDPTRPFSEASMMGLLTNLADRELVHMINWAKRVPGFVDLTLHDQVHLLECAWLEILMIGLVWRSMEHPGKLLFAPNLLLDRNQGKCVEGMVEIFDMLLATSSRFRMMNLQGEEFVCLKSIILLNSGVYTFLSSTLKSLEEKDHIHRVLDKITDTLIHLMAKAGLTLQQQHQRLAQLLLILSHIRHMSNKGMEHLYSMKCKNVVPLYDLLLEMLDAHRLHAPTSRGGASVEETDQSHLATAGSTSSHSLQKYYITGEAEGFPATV
# Method: Approximately 18 hours after the final administration, mice were sacrificed, and MCF7 xenografts were harvested and lysed to determine ER levels by immunoblotting. […] Diet was supplemented with peanut butter to help maintain body weights.
# Species: NOD/SCID female mice (Charles River, 6-7 weeks old upon arrival).
# Animal handling: Axial mammary fat pad implantation of 5×10^6 MCF7 cells/200 per mouse (17β-estradiol 0.36 mg 90-day pellet implanted day before).
# Dosing: Oral (gavage), once a day (QD) for 3 days (QD×3). Vehicle: 2% Tween80/PEG400 (‘PEG/Tween’).
# Sampling: Terminal sacrifice was ˜18 hrs after last dose; tumors were harvested, divided and flash frozen. ERα levels were determined by immunoblotting.
# Cell Lysis: flash frozen tumors were removed from −80° C. storage and placed on dry ice. RIPA lysis buffer and Halt protease inhibitors were used at 400 μl per tumor sample. A steel ball (5 mm) was placed in each sample for tissue disruption. Samples were lysed with TissueLyzer at 24 Hz for 4 minutes. The homogenization was stopped half way through the process and the block flipped over for the duration of the process. Steel beads were pulled out of the tubes and the lysates were spun down at 21,000×g for 15 minutes at 4° C. Lysates were then measured for total protein concentration by BCA (per manufacturer's protocol).
# Detection of proteins by immunoblot: lysates were mixed with sample buffer and reducing agent (per manufacturer's protocol). Samples were denatured at 95° C. for 5 minutes in thermal cycler. Samples were cooled and spun down (5000×g; 1 minute) prior to loading on gel. Gels were loaded with 10 μg total protein per lane. Samples were loaded on 4-15% Criterion Tris/Glycine gels and run for 25 minutes at 250 constant volts in 1×Tris/Glycine/SDS buffer. Protein was transferred from gels to nitrocellulose with Bio-Rad Turbo on default setting. All blots were rinsed with distilled water and blocked for 1 hour at RT in 5% BSA in TBS-T (TBS with 0.1% Tween) on rocker. The blots were cut so that beta-actin and ERα can be detected from the same lane/sample.
# Blots were incubated with primary antibody in 5% BSA in TBST (0.1%) overnight at 4° C. on rocker:
# Blot was washed with TBST (0.1%) three times for 5 minutes on rocker at RT. Secondary antibody was added, and blots incubated at RT on rocker for 1 hour (1:18,000 anti-rabbit-HRP in TBS-T). Blots were washed 3 times in TBST (0.1%) for 5 minutes at RT on the rocker. Signal was developed with Pierce WestFemto maximum sensitivity substrate for 5 minutes and blots imaged on BioRad ChemiDoc.
# Sampling: Tumors were measured twice weekly. Terminal sacrifice was ˜18 hr after last dose; tumors were harvested, divided, and flash frozen. ERα levels were determined by immunoblotting.
# At study termination, the tumors were removed from the mice, and ERα levels were determined by immunoblotting the tumor homogenates.
# Sampling: tumors were measured twice weekly. Terminal sacrifice was ˜18 hr after last dose; tumors were harvested, divided, and flash frozen. ERα levels were determined by immunoblotting.
# [3] = molecular target: T2, ER (Homo sapiens, UniProt P03372); details: after 6 months of fulvestrant treatment; cited from earlier work
# T2 sequence (P03372 1-595): T1 sequence (P03372 1-595)
# [4] = molecular target: T3, ERα (ESR1 Y537S) (Homo sapiens, UniProt P03372, Y537S); assay: Tumor ERα levels in ESR1 (Y537S) PDX model; type: in vivo; details: ESR1 (Y537S) PDX, fulvestrant 200 mg/kg SC twice/week, 2 weeks
# T3 construct: a hormone-independent patient-derived xenograft model; from tissue; host or cells: ESR1 (Y537S) patient-derived xenograft tumour grown in mice
# T3 sequence (P03372 1-595 Y537S): T1 sequence (P03372 1-595) with Y537S
# [5] = cited from earlier work; for progression free survival (PFS): minimum follow-up 18 months
# [6] = system: ESR1 (Y537S) PDX; assay: ESR1 (Y537S) PDX model tumor growth inhibition; type: in vivo; details: ESR1 (Y537S) PDX, fulvestrant 200 mg/kg SC twice/week, 2 weeks
smiles,measurement,setting,value
C[C@]12CC[C@@H]3c4ccc(O)cc4C[C@@H](CCCCCCCCC[S+]([O-])CCCC(F)(F)C(F)(F)F)[C@H]3[C@@H]1CC[C@@H]2O (stereo partly shown) [Fulvestrant],Day 28 Tumor volume (mean ± SD),[1]; fulvestrant 200 mg/kg SC,489 ± 154 mm^3
same,TGI (% vehicle),[1]; fulvestrant 200 mg/kg SC,46 % vehicle
same,tumor growth inhibition (TGI),"[1]; single agent 200 mg/kg subcutaneous, twice/week for 2 weeks",46%
same,% ERα ↓,[2],None
same,ER baseline levels remaining,[3],up to 50%
same,reduction of tumor ERα levels,[4],63%
same,progression free survival (PFS),[5]; fulvestrant 250 mg,5.4 months
same,response rate,"[5]; fulvestrant 250 mg, CI 10.5-19.4%",14.6%
same,overall survival (OS),[5]; fulvestrant 250 mg,22.8 months
same,progression free survival (PFS),[5]; fulvestrant 500 mg,6.5 months
same,response rate,"[5]; fulvestrant 500 mg, 95% CI 9.7-18.8%",13.8%
same,overall survival (OS),[5]; fulvestrant 500 mg,25.1 months
same,tumor growth inhibition (TGI),[6],62%
